Reference: EP4667483A1, “HUMAN TRANSFERRIN RECEPTOR-BINDING PEPTIDE” (JCR Pharmaceuticals Co., Ltd., priority 2023, dated 2024)
Numbered stars: 1 amine (or outer) side, 2 acyl side, 3 side chain; on linkers, the order of the positions; unused ones are H or OH. Bridge positions count the residues as written; N and C are the ends. Square brackets hold non-standard residues; d marks the D form. Side chains are listed from the residue outwards. Peptide text beside a SMILES is read from it. * marks the point of attachment. NH(1-deoxy-D-glucityl) = OC[C@@H](O)[C@@H](O)[C@H](O)[C@@H](O)CN*; Trp(1-CH2COOH) = N[C@@H](Cc1cn(CC(=O)O)c2ccccc12)C(=O)O; Nle(6-morpholino) = N[C@@H](CCCCN1CCOCC1)C(=O)O; Trp(7-aza) = N[C@@H](Cc1c[nH]c2ncccc12)C(=O)O; NMePhe(3-Cl) = CN[C@@H](Cc1cccc(Cl)c1)C(=O)O; Piperazinyl(4-CH2COOH) = O=C(O)CN1CCN(*)CC1; 3Pal(6-NH2) = Nc1ccc(C[C@H](N)C(=O)O)cn1; NMeW = CN[C@@H](Cc1c[nH]c2ccccc12)C(=O)O; NMeY = CN[C@@H](Cc1ccc(O)cc1)C(=O)O; Nva(3-Et) = CCC(CC)[C@H](N)C(=O)O; 3Pal = N[C@@H](Cc1cccnc1)C(=O)O; 4Pal = N[C@@H](Cc1ccncc1)C(=O)O; PEG4 = NCCOCCOCCOCCOCCC(=O)O; Carboxymethyl = O=C(O)C*; CO = O=C([*:1])[*:2]; NH(CH2)3NH2 = NCCCN*

What was measured:
[1] = target: T1, human transferrin receptor (hTfR) (Homo sapiens, UniProt P02786); assay: SPR measurement under pH 6.0 conditions (Biacore T200, NTA chip, immobilized hTfR); type: binding; conditions: read-out: hTfR SPR pH6.0 KD
T1 sequence (P02786 whole entry): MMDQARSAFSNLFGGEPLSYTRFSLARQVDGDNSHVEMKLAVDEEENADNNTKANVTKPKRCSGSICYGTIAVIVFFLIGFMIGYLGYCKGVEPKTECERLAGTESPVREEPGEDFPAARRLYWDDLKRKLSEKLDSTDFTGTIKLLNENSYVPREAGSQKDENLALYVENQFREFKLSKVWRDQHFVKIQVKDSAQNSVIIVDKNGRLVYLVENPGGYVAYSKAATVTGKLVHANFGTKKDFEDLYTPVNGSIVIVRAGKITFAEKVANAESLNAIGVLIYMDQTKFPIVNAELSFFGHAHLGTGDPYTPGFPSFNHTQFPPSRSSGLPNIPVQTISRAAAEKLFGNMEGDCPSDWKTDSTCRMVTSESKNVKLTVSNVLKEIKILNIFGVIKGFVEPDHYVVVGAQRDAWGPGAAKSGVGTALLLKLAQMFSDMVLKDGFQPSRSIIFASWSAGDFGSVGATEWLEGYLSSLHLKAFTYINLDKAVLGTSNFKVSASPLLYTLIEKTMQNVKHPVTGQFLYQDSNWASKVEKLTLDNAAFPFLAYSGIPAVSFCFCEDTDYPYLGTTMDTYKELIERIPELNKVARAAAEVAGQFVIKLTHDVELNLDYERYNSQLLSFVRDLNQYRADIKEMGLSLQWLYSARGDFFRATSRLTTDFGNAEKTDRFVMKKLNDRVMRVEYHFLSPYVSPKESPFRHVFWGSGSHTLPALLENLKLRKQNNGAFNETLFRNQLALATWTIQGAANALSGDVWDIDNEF
Method: (§1) Molecular interactions between the synthesized peptides and the transferrin receptor (hTfR) were evaluated by surface plasmon resonance (SPR) using the following method. The specific assay procedure is described below.
An NTA sensor chip (Cytiva) was inserted in a Biacore T200 (Cytiva), a priming operation was performed 3 times with a running buffer: HBS-P+ pH 6.0 (Cytiva), and an equilibrium state was created at a flow rate of 30 µL/min. A ligand immobilization operation was carried out at a flow rate of 10 µL/min.
The surface of the NTA sensor chip was washed with 350 mM EDTA solution, nickel ions were loaded into the carbomethyldextran chains of the sensor chip with a 500 µM aqueous nickel chloride solution, and then washing was performed with 3 mM EDTA solution. After mixing 50 µL of each of 60 mM EDC solution (Cytiva) and 650 mM NHS solution (Cytiva), the mixture was reacted for 420 seconds at a flow rate of 10 µL/min. 150 µL of 0.2 µM hTfR solution was prepared by diluting with 10 mM acetic acid solution (pH 5.0), and reacted for 420 seconds at a flow rate of 10 µL/min to immobilize hTfR on the NTA sensor chip. For the human transferrin receptor (hTfR), the recombinant hTfR described in Example 2 of WO2018/124121 was used. After immobilization, capping was performed by reacting with 1.0 M ethanolamine aqueous solution (Cytiva) at a flow rate of 10 µL/min for 420 seconds. Peptide lysate prepared in DMSO to 10 mM was diluted with the running buffer to a final concentration of 10 µM peptide lysate, and then peptide solutions of 250 nM, 125 nM, 62.5 nM, 25 nM, and 12.5 nM were prepared. The kinetics of the peptide against hTfR was obtained by SPR measurement using the above samples.
(§2) The kinetic evaluation model was single-cycle kinetics, and curve fitting was performed using Biacore T200 Evaluation Software Version 3.0 (Cytiva). The binding of the peptide to hTfR was evaluated by performing curve fitting on the obtained sensorgram by the least squares method and obtaining the kon value, the koff value, and the KD value.

[2] = target: T1, human transferrin receptor (hTfR); assay: SPR measurement under pH 7.4 conditions (Biacore T200, CM3 chip, hTfR captured by His Tag antibody); type: binding; conditions: read-out: hTfR SPR pH7.4 KD
Method: as §1
An CM3 sensor chip (Cytiva) was inserted into BiacoreT200 (Cytiva), then a priming operation was performed three times by using a running buffer: HBS-P+, pH7.4 (Cytiva), and an equilibrium state was created at a flow rate of […]. Ligand immobilization was performed at a flow rate of 10 µL/min. After mixing 50 µL each of 60 mM EDC solution (Cytiva) and 650 mM NHS solution (Cytiva), the mixture was reacted at a flow rate of 10 µL/min for 420 seconds. 150 µL of […] THE His Tag Antibody, mAb, Mouse (GenScript) was prepared by diluting with 10 mM acetic acid solution (pH 5.0), and reacted at a flow rate of 10 µL/ min for 420 seconds. Then, THE His Tag Antibody, mAb, Mouse (GenScript) was immobilized as a capture molecule on the CM3 sensor chip. After immobilization, capping was performed by reacting with 1.0 M ethanolamine solution (Cytiva) at a flow rate of 10 µL/min for 420 seconds. 300 nM hTfR was captured at a flow rate of 10 µL/min, a peptide solution prepared at 10 mM in DMSO was diluted with running buffer to achieve a final concentration of 10 µM, and peptide solutions at 250 nM, 125 nM, 62.5 nM, 25 nM, and 12.5 nM were prepared. . The peptide samples were reacted at a flow late of 30 µL/min for 120 seconds, followed by dissociation for 600 seconds. The kinetics of the peptide against hTfR was obtained by SPR measurement for the above samples.
as §2

`CC[C@H](C)[C@@H]1NC(=O)[C@H](Cc2ccc(OC)cc2)NC(=O)[C@H](Cc2ccc(N)nc2)NC(=O)[C@H](CC(N)=O)NC(=O)[C@H](Cc2c[nH]c3ncccc23)NC(=O)[C@H](C(C)C)NC(=O)[C@H](Cc2cccc(Cl)c2)N(C)C(=O)[C@H](C(C)C)NC(=O)[C@H](C)NC(=O)CSC[C@@H](C(=O)NCCOCCOCCOCCOCCC(N)=O)NC(=O)[C@H](Cc2ccc(O)cc2)N(C)C(=O)[C@H](Cc2ccncc2)NC(=O)[C@H](CCCNC(=N)N)NC(=O)[C@H](CCCNC(=N)N)NC(=O)[C@H]([C@@H](C)CC)NC1=O` [compound 1] gave a Kd ([1]; pH 6.0, single-cycle kinetics) of 18.2 nM and a Kd ([2]; pH 7.4, single-cycle kinetics) of 1.56 nM.

For `CC[C@H](C)[C@@H]1NC(=O)[C@H](Cc2ccc(OCC(=O)N3CCN(CC(=O)O)CC3)cc2)NC(=O)[C@H](Cc2ccc(O)cc2)NC(=O)[C@H](CC(N)=O)NC(=O)[C@H](Cc2cn(CC(=O)O)c3ccccc23)NC(=O)[C@H](C(C)C)NC(=O)[C@H](Cc2cccc(Cl)c2)N(C)C(=O)[C@H](C(C)C)NC(=O)[C@H](C)NC(=O)CSC[C@@H](C(=O)NCCOCCOCCOCCOCCC(N)=O)NC(=O)[C@H](Cc2ccc(O)cc2)N(C)C(=O)[C@H](Cc2ccncc2)NC(=O)[C@H](CCCCN2CCOCC2)NC(=O)[C@H](CCC(N)=O)NC(=O)[C@H]([C@@H](C)CC)NC1=O` [compound 25], the Kd ([1]; pH 6.0, single-cycle kinetics) was 57.9 nM and the Kd ([2]; pH 7.4, single-cycle kinetics) was 3.35 nM.

Work on `CC[C@H](C)[C@@H]1NC(=O)[C@H](Cc2ccc(OC)cc2)NC(=O)[C@H](CCCNC(=N)N)NC(=O)[C@H](CC(N)=O)NC(=O)[C@H](Cc2c[nH]c3ccccc23)N(C)C(=O)[C@H](C(C)C)NC(=O)[C@H](Cc2cccc(Cl)c2)N(C)C(=O)[C@H](C(C)C)NC(=O)[C@H](C)NC(=O)CSC[C@@H](C(=O)NCCOCCOCCOCCOCCC(N)=O)NC(=O)[C@H](Cc2ccc(O)cc2)N(C)C(=O)[C@H](Cc2ccccc2)NC(=O)[C@H](CCCNC(=N)N)NC(=O)[C@H](CCC(N)=O)NC(=O)[C@H]([C@@H](C)CC)NC1=O` [compound 174] ({CH2CO}-AV[NMePhe(3-Cl)]V[NMeW]NRY(Me)IIQRF[NMeY]C[PEG4]-NH2; thioether N-15) yielded a Kd ([1]; pH 6.0, single-cycle kinetics) of 75.5 nM and a Kd ([2]; pH 7.4, single-cycle kinetics) of 20.6 nM.

`CC[C@H](C)[C@@H]1NC(=O)[C@H](Cc2ccc(OCC(=O)O)cc2)NC(=O)[C@H](Cc2ccc(N)nc2)NC(=O)[C@H](CC(N)=O)NC(=O)[C@H](Cc2c[nH]c3ncccc23)NC(=O)[C@H](C(C)C)NC(=O)[C@H](Cc2cccc(Cl)c2)N(C)C(=O)[C@H](C(C)C)NC(=O)[C@H](C)NC(=O)CSC[C@@H](C(=O)NCCOCCOCCOCCOCCC(N)=O)NC(=O)[C@H](Cc2ccc(O)cc2)N(C)C(=O)[C@H](Cc2ccncc2)NC(=O)[C@H](CCCNC(=N)N)NC(=O)[C@H](CCCCNC(=O)N2CCN(CC(=O)O)CC2)NC(=O)[C@H]([C@@H](C)CC)NC1=O` [compound 14] ({CH2CO}-AV[NMePhe(3-Cl)]V[Trp(7-aza)]N[3Pal(6-NH2)]Y(Carboxymethyl)IIK([CO-Piperazinyl(4-CH2COOH)])R[4Pal][NMeY]C[PEG4]-NH2; thioether N-15) showed a Kd ([1]; pH 6.0, single-cycle kinetics) of 108 nM and a Kd ([2]; pH 7.4, single-cycle kinetics) of 30.8 nM.

`CC[C@H](C)[C@@H]1NC(=O)[C@H](Cc2ccc(OC)cc2)NC(=O)[C@H](Cc2ccc(N)nc2)NC(=O)[C@H](CC(N)=O)NC(=O)[C@H](Cc2c[nH]c3ncccc23)NC(=O)[C@H](C(C)C)NC(=O)[C@H](Cc2cccc(Cl)c2)N(C)C(=O)[C@H](C(C)C)NC(=O)[C@H](C)NC(=O)CSC[C@@H](C(=O)NCCOCCOCCOCCOCCC(N)=O)NC(=O)[C@H](Cc2ccc(O)cc2)N(C)C(=O)[C@H](Cc2ccncc2)NC(=O)[C@H](CCCCN2CCOCC2)NC(=O)[C@H](CCCNC(=N)N)NC(=O)[C@H]([C@@H](C)CC)NC1=O` [compound 3] ({CH2CO}-AV[NMePhe(3-Cl)]V[Trp(7-aza)]N[3Pal(6-NH2)]Y(Me)IIR[Nle(6-morpholino)][4Pal][NMeY]C[PEG4]-NH2; thioether N-15) showed a Kd ([1]; pH 6.0, single-cycle kinetics) of 16.1 nM and a Kd ([2]; pH 7.4, single-cycle kinetics) of 2.63 nM.

`CCC(CC)[C@@H]1NC(=O)[C@H](Cc2ccc(OCC(=O)O)cc2)NC(=O)[C@H](Cc2ccc(O)cc2)NC(=O)[C@H](CC(N)=O)NC(=O)[C@H](Cc2cn(CC(=O)O)c3ccccc23)NC(=O)[C@H](C(C)C)NC(=O)[C@H](Cc2cccc(Cl)c2)N(C)C(=O)[C@H](C(C)C)NC(=O)[C@H](C)NC(=O)CSC[C@@H](C(=O)NCCOCCOCCOCCOCCC(N)=O)NC(=O)[C@H](Cc2ccc(O)cc2)N(C)C(=O)[C@H](Cc2cccnc2)NC(=O)[C@H](CCCNC(=N)N)NC(=O)[C@H](CCC(N)=O)NC(=O)[C@H]([C@@H](C)CC)NC1=O` [compound 105] ({CH2CO}-AV[NMePhe(3-Cl)]V[Trp(1-CH2COOH)]NYY(Carboxymethyl)[Nva(3-Et)]IQR[3Pal][NMeY]C[PEG4]-NH2; thioether N-15) gave a Kd ([1]; SPR, pH 6.0, peptide with the linker named in the table) of 67.9 nM and a Kd ([2]; SPR, pH 7.4, peptide with the linker named in the table) of 10.6 nM.

`CC[C@H](C)[C@@H]1NC(=O)[C@H](Cc2ccc(OC)cc2)NC(=O)[C@H](CCCNC(=N)N)NC(=O)[C@H](CC(N)=O)NC(=O)[C@H](Cc2c[nH]c3ccccc23)N(C)C(=O)[C@H](C(C)C)NC(=O)[C@H](Cc2cccc(Cl)c2)N(C)C(=O)[C@H](C(C)C)NC(=O)[C@H](C)NC(=O)CSC[C@@H](C(=O)NCCOCCOCCOCCOCCC(N)=O)NC(=O)[C@H](Cc2ccc(O)cc2)N(C)C(=O)[C@H](Cc2ccccc2)NC(=O)[C@H](CCCNC(=N)N)NC(=O)[C@H](CCC(=O)NCCCN)NC(=O)[C@H]([C@@H](C)CC)NC1=O` [compound 175] ({CH2CO}-AV[NMePhe(3-Cl)]V[NMeW]NRY(Me)IIE(NH(CH2)3NH2)RF[NMeY]C[PEG4]-NH2; thioether N-15) showed a Kd ([1]; pH 6.0, single-cycle kinetics) of 12.2 nM and a Kd ([2]; pH 7.4, single-cycle kinetics) of 3.04 nM.

In the case of `CC[C@H](C)[C@@H]1NC(=O)[C@H](Cc2ccc(OC)cc2)NC(=O)[C@H](Cc2ccc(N)nc2)NC(=O)[C@H](CC(N)=O)NC(=O)[C@H](Cc2c[nH]c3ncccc23)NC(=O)[C@H](C(C)C)NC(=O)[C@H](Cc2cccc(Cl)c2)N(C)C(=O)[C@H](C(C)C)NC(=O)[C@H](C)NC(=O)CSC[C@@H](C(=O)NCCOCCOCCOCCOCCC(N)=O)NC(=O)[C@H](Cc2ccc(O)cc2)N(C)C(=O)[C@H](Cc2ccncc2)NC(=O)[C@H](CCCCN2CCOCC2)NC(=O)[C@H](CCC(=O)NC[C@H](O)[C@@H](O)[C@H](O)[C@H](O)CO)NC(=O)[C@H]([C@@H](C)CC)NC1=O` [compound 20] ({CH2CO}-AV[NMePhe(3-Cl)]V[Trp(7-aza)]N[3Pal(6-NH2)]Y(Me)IIE(NH(1-deoxy-D-glucityl))[Nle(6-morpholino)][4Pal][NMeY]C[PEG4]-NH2; thioether N-15), the Kd ([1]; pH 6.0, single-cycle kinetics) is reported as 41.3 nM and the Kd ([2]; pH 7.4, single-cycle kinetics) is reported as 4.08 nM.

`CC[C@H](C)[C@@H]1NC(=O)[C@H](Cc2ccc(OC)cc2)NC(=O)[C@H](Cc2ccc(N)nc2)NC(=O)[C@H](CC(N)=O)NC(=O)[C@H](Cc2c[nH]c3ncccc23)NC(=O)[C@H](C(C)C)NC(=O)[C@H](Cc2cccc(Cl)c2)N(C)C(=O)[C@H](C(C)C)NC(=O)[C@H](C)NC(=O)CSC[C@@H](C(=O)NCCOCCOCCOCCOCCC(N)=O)NC(=O)[C@H](Cc2ccc(O)cc2)N(C)C(=O)[C@H](Cc2ccncc2)NC(=O)[C@H](CCCNC(=N)N)NC(=O)[C@H](CCC(=O)NC[C@H](O)[C@@H](O)[C@H](O)[C@H](O)CO)NC(=O)[C@H]([C@@H](C)CC)NC1=O` [compound 10] gave a Kd ([1]; pH 6.0, single-cycle kinetics) of 36.6 nM and a Kd ([2]; pH 7.4, single-cycle kinetics) of 2.5 nM.
